Assay results published in patent publication US8324199B2, “Pyridazine derivatives as factor xia inhibitors” (Bristol-Myers Squibb Company, priority 2008, dated 2012).

Target: T1, purified human Factor XIa (Homo sapiens, UniProt P03951)
T1 construct: purchased Haematologic Technologies
Assay: Factor XIa assay (chromogenic substrate hydrolysis, Ki)
Type: biochemical
Conditions: purified human Factor XIa 75-200 pM, substrate S-2366, 50 mM HEPES pH 7.4
Protocol: The effectiveness of compounds of the present invention as inhibitors of the coagulation factors XIa, VIIa, IXa, Xa, XIIa, plasma kallikrein or thrombin, can be determined using a relevant purified serine protease, respectively, and an appropriate synthetic substrate. The rate of hydrolysis of the chromogenic or fluorogenic substrate by the relevant serine protease was measured both in the absence and presence of compounds of the present invention. […] A decrease in the rate of absorbance or fluorescence change in the presence of inhibitor is indicative of enzyme inhibition. Such methods are known to one skilled in the art. The results of this assay are expressed as the inhibitory constant, Ki.
Factor XIa determinations were made in 50 mM HEPES buffer at pH 7.4 containing 145 mM NaCl, 5 mM KCl, and 0.1% PEG 8000 (polyethylene glycol; JT Baker or Fisher Scientific). Determinations were made using purified human Factor XIa at a final concentration of 75-200 pM (Haematologic Technologies) and the synthetic substrate S-2366 (pyroGlu-Pro-Arg-pNA; Chromogenix or AnaSpec) at a concentration of 0.0002-0.001 M.
The Michaelis constant, Km, for substrate hydrolysis by each protease, was determined at 25° C. using the method of Lineweaver and Burk. Values of Ki were determined by allowing the protease to react with the substrate in the presence of the inhibitor. Reactions were allowed to go for periods of 20-180 minutes (depending on the protease) and the velocities (rate of absorbance or fluorescence change versus time) were measured. The following relationships were used to calculate Ki values: (vo−vs)/vs=I/(Ki(1+S/Km)) for a competitive inhibitor with one binding site; or vs/vo=A+((B−A)/1+((IC50/(I)^n))); and Ki=IC50/(1+S/Km) for a competitive inhibitor where: […]

T1 sequence (P03951 388-625 limits assumed): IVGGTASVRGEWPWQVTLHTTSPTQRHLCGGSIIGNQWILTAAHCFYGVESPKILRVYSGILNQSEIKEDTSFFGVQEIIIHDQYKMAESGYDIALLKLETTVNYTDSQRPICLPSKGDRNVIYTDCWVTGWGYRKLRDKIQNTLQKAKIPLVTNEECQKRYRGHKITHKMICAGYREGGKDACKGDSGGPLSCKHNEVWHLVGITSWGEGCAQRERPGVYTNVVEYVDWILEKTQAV
T1 sequence (P03951 19-387 partner limits assumed): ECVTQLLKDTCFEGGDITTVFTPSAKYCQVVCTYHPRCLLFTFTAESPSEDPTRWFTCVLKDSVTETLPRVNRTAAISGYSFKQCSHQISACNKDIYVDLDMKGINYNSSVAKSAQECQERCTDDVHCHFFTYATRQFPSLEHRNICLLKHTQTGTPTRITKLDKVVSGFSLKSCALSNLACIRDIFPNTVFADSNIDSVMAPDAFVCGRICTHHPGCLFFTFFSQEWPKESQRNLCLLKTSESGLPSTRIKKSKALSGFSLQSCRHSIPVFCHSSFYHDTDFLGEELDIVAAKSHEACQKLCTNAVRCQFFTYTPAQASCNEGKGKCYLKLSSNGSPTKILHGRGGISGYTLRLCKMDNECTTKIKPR

Ki [nM]	Structure (SMILES)
503	COC(=O)Nc1ccc(-c2cc([C@H](CC3CN(C(=O)OC(C)(C)C)C3)NC(=O)/C=C/c3cc(Cl)ccc3-n3cnnn3)n[nH]c2=O)cc1 [Example 136, (S,E)-tert-Butyl 3-(2-(3-(5-chloro-2-(1H-tetrazol-1-yl)phenyl)acrylamido)-2-(5-(4-(methoxycarbonylamino)phenyl)-6-oxo-1,6-dihydropyridazin-3-yl)ethyl)azetidine-1-carboxylate]
76	COC(=O)Nc1ccc(-c2cc([C@H](Cc3cc([S+](C)[O-])n(C)n3)NC(=O)/C=C/c3cc(Cl)ccc3-n3cnnn3)n[nH]c2=O)cc1 (stereo partly drawn) [Example 132, (S,E)-Methyl 4-(6-(1-(3-(5-chloro-2-(1H-tetrazol-1-yl)phenyl)acrylamido)-2-(1-methyl-5-(methylsulfinyl)-1H-pyrazol-3-yl)ethyl)-3-oxo-2,3-dihydropyridazin-4-yl)phenylcarbamate]
176	COC(=O)Nc1ccc(-c2cc([C@H](CC3CCCN(S(C)(=O)=O)C3)NC(=O)/C=C/c3cc(Cl)ccc3-n3cnnn3)n[nH]c2=O)cc1 (stereo partly drawn) [Example 154, Methyl 4-(6-((1S)-1-((E)-3-(5-chloro-2-(1H-tetrazol-1-yl)phenyl)acrylamido)-2-(1-(methylsulfonyl)piperidin-3-yl)ethyl)-3-oxo-2,3-dihydropyridazin-4-yl)phenylcarbamate]
1680	COC(=O)Nc1ccc(-c2cc([C@H](Cc3ccccc3)NC(=O)/C=C/c3cc(Cl)ccc3-n3cnnn3)n[nH]c2=O)cc1F [Example 61, (S,E)-Methyl 4-(6-(1-(3-(5-chloro-2-(1H-tetrazol-1-yl)phenyl)acrylamido)-2-phenylethyl)-3-oxo-2,3-dihydropyridazin-4-yl)-2-fluorophenylcarbamate]
5150	COC(=O)Nc1ccc(-c2cc([C@H](CC3CCN(C(=O)OCc4ccccc4)C3)NC(=O)/C=C/c3cc(Cl)ccc3-n3cnnn3)n[nH]c2=O)cc1 (stereo partly drawn) [Example 147, Benzyl 3-((S)-2-((E)-3-(5-chloro-2-(1H-tetrazol-1-yl)phenyl)acrylamido)-2-(5-(4-(methoxycarbonylamino)phenyl)-6-oxo-1,6-dihydropyridazin-3-yl)ethyl)pyrrolidine-1-carboxylate]
3330	NC1CC1C(=O)Nc1ccc(-c2cnnc([C@H](Cc3ccccc3)NC(=O)/C=C/c3cc(Cl)ccc3-n3cnnn3)c2)cc1 (stereo partly drawn) [Example 80, 2-Amino-N-(4-(6-((S)-1-((E)-3-(5-chloro-2-(1H-tetrazol-1-yl)phenyl)acrylamido)-2-phenylethyl)pyridazin-4-yl)phenyl)cyclopropanecarboxamide]
746	COC(=O)Nc1ccc(-c2cc([C@H](CC3CCCNC3)NC(=O)/C=C/c3cc(Cl)ccc3-n3cnnn3)nnc2Cl)cc1 (single isomer, unassigned) [Example 99]
630	COC(=O)Nc1ccc(-c2cc(C(Cc3ccccc3)NC(=O)/C=C/c3cc(Cl)ccc3-n3cnnn3)c(Cl)nn2)cc1 (single isomer, unassigned) [Example 3, (E)-Methyl 4-(6-chloro-5-(1-(3-(5-chloro-2-(1H-tetrazol-1-yl)phenyl)acrylamido)-2-phenylethyl)pyridazin-3-yl)phenylcarbamate]
141	O=C(/C=C/c1cc(Cl)ccc1-n1cnnn1)N[C@@H](Cc1ccccc1)c1cc(-c2ccc(NC(=O)OC3CNC3)cc2)cnn1 [Example 89, (S,E)-Azetidin-3-yl 4-(6-(1-(3-(5-chloro-2-(1H-tetrazol-1-yl)phenyl)acrylamido)-2-phenylethyl)pyridazin-4-yl)phenylcarbamate]
0.84	O=C(/C=C/c1cc(Cl)ccc1-n1cnnn1)N[C@@H](Cc1ccccc1)c1cc(-c2ccc3[nH]c(=O)cc(O)c3c2)cnn1 [Example 78, (S,E)-3-(5-Chloro-2-(1H-tetrazol-1-yl)phenyl)-N-(1-(5-(4-hydroxy-2-oxo-1,2-dihydroquinolin-6-yl)pyridazin-3-yl)-2-phenylethyl)acrylamide]
3370	O=C(O)CCOC(=O)Nc1ccc(-c2cnnc([C@H](Cc3ccccc3)NC(=O)CCc3ccccc3-n3cnnn3)c2)cc1 [Example 60, (S)-3-(4-(6-(1-(3-(2-(1H-Tetrazol-1-yl)phenyl)propanamido)-2-phenylethyl)pyridazin-4-yl)phenylcarbamoyloxy)propanoic acid]
55	COC(=O)Nc1ccc(-c2cc([C@H](CC3CCCN(C(=O)C(C)C)C3)NC(=O)/C=C/c3cc(Cl)ccc3-n3cnnn3)nnc2Cl)cc1 (single isomer, unassigned) [Example 118]
17	COC(=O)Nc1ccc(-c2cc([C@H](Cc3cc4n(n3)CCCO4)NC(=O)/C=C/c3cc(Cl)ccc3-n3cnnn3)nnc2Cl)cc1 [Example 97, (S,E)-Methyl 4-(3-chloro-6-(1-(3-(5-chloro-2-(1H-tetrazol-1-yl)phenyl)acrylamido)-2-(6,7-dihydro-5H-pyrazolo[5,1-b][1,3]oxazin-2-yl)ethyl)pyridazin-4-yl)phenylcarbamate]
20	Nc1ccc(-c2cc(C(Cc3ccccc3)NC(=O)/C=C/c3cc(Cl)ccc3-n3cnnn3)c(Cl)nn2)cn1 (racemic) [Example 36, (±)-(E)-N-(1-(6-(6-Aminopyridin-3-yl)-3-chloropyridazin-4-yl)-2-phenylethyl)-3-(5-chloro-2-(1H-tetrazol-1-yl)phenyl)acrylamide]
5.5	COC(=O)Nc1ccc(-c2cc([C@H](CC(=O)OC(C)(C)C)NC(=O)/C=C/c3cc(Cl)ccc3-n3cnnn3)n[nH]c2=O)cc1 [Example 146, (S,E)-tert-Butyl 3-(3-(5-chloro-2-(1H-tetrazol-1-yl)phenyl)acrylamido)-3-(5-(4-(methoxycarbonylamino)phenyl)-6-oxo-1,6-dihydropyridazin-3-yl)propanoate]
327	CCN1CCC(C[C@H](NC(=O)/C=C/c2cc(Cl)ccc2-n2cnnn2)c2cc(-c3ccc(NC(=O)OC)cc3)c(Cl)nn2)C1 (stereo partly drawn) [Example 116, Methyl 4-(3-chloro-6-((1S)-1-((E)-3-(5-chloro-2-(1 H-tetrazol-1-yl)phenyl)acrylamido)-2-(1-ethylpyrrolidin-3-yl)ethyl)pyridazin-4-yl)phenylcarbamate]
27	COC(=O)Nc1ccc(-c2cc([C@H](Cc3ccncc3)NC(=O)/C=C/c3cc(Cl)ccc3-n3cnnn3)nnc2Cl)cc1 [Example 94, (S,E)-Methyl 4-(3-chloro-6-(1-(3-(5-chloro-2-(1H-tetrazol-1-yl)phenyl)acrylamido)-2-(pyridin-4-yl)ethyl)pyridazin-4-yl)phenylcarbamate]
2	COC(=O)Nc1ccc(-c2cc(C(Cc3ccccc3)NC(=O)/C=C/c3cc(Cl)ccc3-n3cnnn3)c(Cl)nn2)cc1 (single isomer, unassigned) [Example 2, (E)-Methyl 4-(6-chloro-5-(1-(3-(5-chloro-2-(1H-tetrazol-1-yl)phenyl)acrylamido)-2-phenylethyl)pyridazin-3-yl)phenylcarbamate]
9.4	CCn1ccc(C[C@H](NC(=O)/C=C/c2cc(Cl)ccc2-n2cnnn2)c2cc(-c3ccc(NC(=O)OC)cc3)c(Cl)nn2)n1 [Example 71, (S,E)-Methyl 4-(3-chloro-6-(1-(3-(5-chloro-2-(1H-tetrazol-1-yl)phenyl)acrylamido)-2-(1-ethyl-1H-pyrazol-3-yl)ethyl)pyridazin-4-yl)phenylcarbamate]
